“Also recorded” adds a separate entry of the source.
How the values were obtained:
natural suppressor cells [1] = target: T1, natural suppressor cells (Mus musculus, UniProt P97292); assay: Blocking histamine effects in natural suppressor cells (H2 antagonism); assay type: cell-based, mouse (BALB/c); conditions: for Blockade of histamine mediated accumulation of cAMP: NS cells
T1 construct: cAMP accumulation
Protocol: This assay was carried out in the same fashion as already described for the derivatives except that ED-90 concentration of the test compound was chosen. Cimetidine was added at the same time in concentrations ranging from 10^-4 to 10^-8 M. Alternatively, 10^-6 M cimetidine was added to 10^-3 -10^-8 M concentration of agonists.

natural suppressor cells [2] = assay: Mixed leukocyte reaction (MLR) suppressor assay; assay type: cell-based, mouse (BALB/c, C57 BL/6)
Protocol: Responder (BALB/c) and stimulator (C57 BL/6) spleen cells (5×10^5each) were incubated with graded numbers of NS cells in 0.3 ml/well in 96-well flat bottomed microculture plates (Costar, Data Packaging, Cambridge, MA). The culture medium was supplemented with 100 U/ml penicillin, 100 ug/ml of streptomycin (both GIBCO, Grand Island, NY), and 10=pooled human serum (VSP human serum, Biocell Laboratories, Carson CA). Co-cultured cells and stimulator cells were given 3300 rad before incubation. Cultures were maintained at 37° C. in 5% CO2 for 5 or 6 days. Eighteen hr before termination, 1 μCi of ^3 H!-thymidine (specific activity […]) (New England Nuclear, Boston, MA) was added to each culture. Cells were harvested as described above. The data were expressed as the arithmetic mean of triplicate cultures. Suppression was calculated as follows: percent suppression=1-(CPM with co-cultured cells)/(CPM without co-cultured cells)×100. […] To block the effects of agonists, […] cimetidine was used as an H2 antagonist and 10^-6 M mepyramine was used as an H1 antagonist.
CO-cultured and stimulator cells were given 3300 rad in vitro just prior to incubation. […] See, Khan et al., J. Immunol. (1985) 134:4100. […] To determine the role of H1 and H2 receptors in the modification of NS cell function, the incubation with compound 10 was carried out in the presence of either cimetidine (10^-5 M) or mepyramine (10^-6 M) for four hours at 37° C. The cells were then washed extensively and later added to co-cultures with responder and stimulator cells. […] Similar experiments were carried out with each of the indicated agonists (Table 5).

natural suppressor cells [3] = target: T1, natural suppressor cells; assay: Effects of histamine derivatives on cAMP accumulation in natural suppressor (NS) cells; assay type: cell-based, mouse (BALB/c); conditions: for Relative potency: NS cells, histamine = 1.0; for Activity / potency on NS cells (in words): cAMP accumulation, H2 activity
Description: NS cells were obtained and cultured as follows: four-to six-month old BALB/c mice were anesthetized with pentobarbital and all major lymphoid organs, including all major lymph nodes, the spleen, and the thymus, were irradiated as described by Slavin et al., Science (1976) 193:1252. The skull, lungs, and hind legs were shielded with lead. The mice were given 200 rad per day, 5 times per week, to a total dose of 3400 rad. Irradiation was delivered from a single 250 kV (15A) source (Philips Medical Systems, Inc., Shelton, CT). The mice were killed between 5 and 15 days after completion of the TLI. Spleens were removed aseptically and single cell suspensions were prepared by gently pressing the spleen fragments through a nylon fiber mesh (Tetko, Inc., Elmsford, NY). These spleen cells were fed daily with tissue culture medium containing RPMI 1640, 10% FCS, 2 mM glutamine, 10% CAS and 5×10^-5 M 2-mercaptoethanol and were later cloned by limiting dilutior, The clones were maintained in RPMI 1640 medium with 10% PCS and 10% CAS.
NS cells were centrifuged and resuspended at b 1×10^6 /ml in PBS and incubated at 37° C. for 10 min with 10 mM IBMX at a final concentration at 20 μM. Alternatively the cells were resuspended in 5 mM HEPES and 1 mM MgSO4 and after five minutes were disrupted in a Dounce homogenizer. Broken cells were centrifuged at 20,000 g […] for thirty minutes and supernatant was discarded. The pellet was resuspended in Tris (pH 7.5), 5 mM HEPES and 1 mM MgSO4 and incubated with IBMX.
Cold TCA (100%) was added to a final concentration of 8% and the tubes were stored in ice. Samples were extracted 3 times with 3 volumes of ether. The ether was evaporated at 40° C. in a water bath for approximately 45 min. Acetylation of both experimental samples and cAMP standards were performed by addition of 10 μl of a mixture of triethylamine and acetic anhydride (2:1). […] The radio-immunoassay was performed as reported previously by Khan et al., J. Clin. Invest. (1985) 75:1578.

[4] = target: T2, guinea pig myocardial adenylate cyclase (Cavia porcellus, UniProt P47747); assay: Guinea pig myocardial adenylate cyclase assay; assay type: biochemical; conditions: for Activity on guinea pig myocardium (in words): adenylate cyclase
T2 construct: histamine-stimulated adenylate cyclase with GPP(NH)P
T2 sequence (P47747 whole entry): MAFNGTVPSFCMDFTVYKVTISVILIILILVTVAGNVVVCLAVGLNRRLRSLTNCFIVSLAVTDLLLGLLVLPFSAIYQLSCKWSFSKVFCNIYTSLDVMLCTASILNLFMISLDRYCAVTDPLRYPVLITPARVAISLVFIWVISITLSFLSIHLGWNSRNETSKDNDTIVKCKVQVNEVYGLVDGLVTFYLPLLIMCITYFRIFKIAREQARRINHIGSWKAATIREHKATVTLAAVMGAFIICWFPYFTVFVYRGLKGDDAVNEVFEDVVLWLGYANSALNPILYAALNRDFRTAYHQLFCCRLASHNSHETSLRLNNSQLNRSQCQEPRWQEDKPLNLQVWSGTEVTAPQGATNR
Protocol: Male, partly albino, guinea pigs (600 g average weight) were killed by a blow to the head. The hearts were excised and immediately immersed in ice cold oxygenated Tyrode's solution. Both ventricles were dissected free and placed in 250 mM sucrose, 5 mM Tris, 1 mM EDTA, pH 7.45. The tissue was minced with a screen, and was then homogenized with 3 consecutive 5 sec bursts of a Polytron (Brinkman Instruments, Inc., Westbury, NY) at a setting of 11. The homogenate was then centrifuged at 1085×g for 20 min. The pellet was resuspended and recentrifuged twice. The final suspension was filtered through four layers of gauze. Adenylate cyclase was assayed by the method of Salomon et al., Anal. Biochem. (1974) 58:541 as modified by Bristow et al., Mol Pharmacol. (1982) 21:671. Enzyme protein (75-250 μg) was added to a reaction mixture that consisted of 0.1 mM Mg ATP, 0.5 mM MgCl2, 10 mM phosphocreatine, 14.5 μg of creatine kinase (1381 U/mg), 100 mM
The final reaction volume before addition of α-^32 P!ATP was 225 μl. Reaction tubes were stored in cryogenic racks (Kryorack, Isolab, Inc. Akron, OH) at 0° C.
The reaction mixture was pre-warmed in a shaking water bath at 30° C. for 5 min after which 25 μl ([…]) of α-^32 P!ATP (250-500 Ci/mM) was added to label the ATP pool. The assay time was 20 min, the time needed for measurable stimulation of adenylate cyclase. The ^32 P reaction was stopped by the addition of 750 μl of 1% sodium dodecysulfate. ^32 P-labelled cyclic AMP was then isolated by the dual Dowex-alumina column method of Salomon et al., supra. α-^32 P!ATP (New England Nuclear Corporation, Boston, MA) that gave reagent blanks of 50 cpm was purified on Dowex columns as described by Salomon et al., supra.

natural suppressor cells [5] = conditions: literature, Khan et al. 1985; listed as histamine; cited from earlier work
lymphoid cells = assay: Effect of beta adrenergic blockade on cAMP accumulation in lymphoid cells; assay type: cell-based; conditions: 6×10^-6 M propranolol

T1 sequence (P97292 whole entry): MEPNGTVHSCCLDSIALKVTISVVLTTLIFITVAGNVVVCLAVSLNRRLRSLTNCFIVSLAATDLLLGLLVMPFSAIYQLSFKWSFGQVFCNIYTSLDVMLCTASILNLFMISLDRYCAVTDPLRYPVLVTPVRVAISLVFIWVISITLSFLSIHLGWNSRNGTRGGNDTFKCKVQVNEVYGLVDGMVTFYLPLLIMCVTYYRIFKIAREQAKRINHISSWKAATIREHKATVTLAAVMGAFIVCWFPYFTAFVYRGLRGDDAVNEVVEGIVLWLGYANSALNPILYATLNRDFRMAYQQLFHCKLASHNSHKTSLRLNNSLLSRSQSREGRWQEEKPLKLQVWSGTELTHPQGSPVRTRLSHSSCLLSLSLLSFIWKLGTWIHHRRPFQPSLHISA

Relative potency (natural suppressor cells [3])	Activity on guinea pig myocardium (in words) [4]	SMILES	Activity / potency on NS cells (in words) (natural suppressor cells [3])	Blockade of histamine mediated accumulation of cAMP (natural suppressor cells [1])	H1 activity in MLR (in words) (natural suppressor cells [2])	other results
–	–	CN/C(=N/CCSCc1nc[nH]c1C)NC#N [Cimetidine, reference compound]	–	–	–	Effect on basal activity (natural suppressor cells [1]; 10^-6 M cimetidine): did not lower the basal activity; Antagonism by cimetidine (H2 antagonist) of cAMP accumulation (natural suppressor cells [1]; cimetidine 10^-5 M, compounds 6-8 at 10^-4 M, 9 at 10^-7 M): competitively blocked the actions of compounds 6-8 (used at 10^-4 M) and 9 (used at 10^-7 M); Ki (natural suppressor cells [1]; lymphoid cells, read-out: Inhibition constant): 110 to 430 nM; Effect of antagonist on derivative-enhanced suppression in MLR (natural suppressor cells [2]; with compound 10, cimetidine 10^-5 M or mepyramine 10^-6 M, four hours at 37° C): did not alter the derivative-enhanced suppression
Inactive	completely inactive	CCCCCC(=O)NCCc1c[nH]cn1 [Compound 3, N-Hexamido-4-2'-aminoethyl!imidazole]	impotent as H2 receptor agonists on NS cells	failed to block histamine mediated accumulation of cAMP	no H1 activity	Activity / potency on NS cells (in words) (natural suppressor cells [3]; listed as compound 3): inactive; also recorded: Neither an aliphatic amide derivative of histamine (compound 3) nor the dipeptide conjugate of histamine (compound 12) altered intracellular cAMP; also recorded: nor did they stimulate intracellular accumulation of cAMP
Inactive	–	CC(CCCCC(=O)Nc1ccccc1C(F)(F)F)NCCc1c[nH]cn1 (stereo not shown) [Compound 11]	impotent as H2 receptor agonists on NS cells	failed to block histamine mediated accumulation of cAMP	nullified both detectable H1 and H2 activity	Activity / potency on NS cells (in words) (natural suppressor cells [3]; listed as compound 11): nullified both detectable H1 and H2 activity
Inactive	stimulated guinea pig myocardium	CCCCNC(=O)CCCCC(C)NCCc1c[nH]cn1 (stereo not shown) [Compound 13]	impotent as H2 receptor agonists on NS cells	failed to block histamine mediated accumulation of cAMP	no H1 activity	Activity / potency on NS cells (in words) (natural suppressor cells [3]; listed as compound 13): inactive on NS cells; also recorded: nor did they stimulate intracellular accumulation of cAMP
–	–	NCCc1c[nH]cn1 [Histamine, 2-(4'-imidazolinyl)ethylamino]	–	–	–	Stimulation of adenylate cyclase over base levels ([4]; histamine 10^-5 M): threefold stimulation of adenylate cyclase over base levels; Effect on suppressive ability of NS cells (natural suppressor cells [5]): augmented the suppressive capacity of NS cells via H1 receptors
–	–	CC(C)NCC(O)COc1cccc2ccccc12 (stereo not shown) [Propranolol]	–	–	–	Effect on histamine-induced intracellular accumulation of cAMP (lymphoid cells): had no effect on histamine-induced intracel accumulation of cAMP; Blockade of the effects of isoproterenol (lymphoid cells; 10^-5 M isoproterenol): completely blocked the effects of 10^-5 M isoproterenol

SMILES	Relative potency (natural suppressor cells [3])	Activity on guinea pig myocardium (in words) [4]	Activity / potency on NS cells (in words) (natural suppressor cells [3])	Blockade of histamine mediated accumulation of cAMP (natural suppressor cells [1])	H1 activity in MLR (in words) (natural suppressor cells [2])	other results
CCCCCC(C)NCCc1c[nH]cn1 (stereo not shown) [Compound 2]	Inactive	completely inactive	impotent as H2 receptor agonists on NS cells	failed to block histamine mediated accumulation of cAMP	no H1 activity	Activity / potency on NS cells (in words) (natural suppressor cells [3]; listed as compound 2): inactive; also recorded: nor did they stimulate intracellular accumulation of cAMP
